Counter-ions that a name gives are not always drawn.
Assay: Phase 1 dose escalation study in healthy post-menopausal women, treatment related AEs
Format: in vivo
Method: The subjects were 40-75 years old with BMI of 18.0-30 kg/m^2. Subjects having evidence of clinically relevant pathology, increased risk of stroke or of history venous thromboembolic events, or use of concomitant medication less than 14 days prior to admission to clinical research center (paracetamol allowed up to 3 days prior) were excluded. Dosing
The subjects were treated with placebo or at least one dose p.o., q.d. after a light breakfast for 7 days at dose levels of 200 mg, 500 mg, 750 mg and 1000 mg, respectively.

CCNCCc1ccc(CN(CC)c2cc(OC)ccc2[C@@H]2CCc3cc(O)ccc3C2)cc1 [RAD1901, (6R)-6-(2-(N-(4-(2-(ethylamino)ethyl)benzyl)-N-ethylamino)-4-methoxyphenyl)-5,6,7,8-tetrahydronaphthalen-2-ol dihydrochloride]
4 n(%): Hiccups Gr1 (500 mg, N = 14)
6 n(%): Hot flush Gr1 (500 mg, N = 14)
3 (38) n(%): Dysphagia Gr1 (750 mg, N = 8) | Headache Gr1 (750 mg, N = 8)
1 (13) n(%): Abdominal discomfort Gr1 (750 mg, N = 8) | Abdominal discomfort Gr2 (750 mg, N = 8) | Abdominal distension Gr1 (750 mg, N = 8) | Abdominal pain Gr1 (750 mg, N = 8) | Dizziness Gr1 (750 mg, N = 8) | Dysphagia Gr2 (750 mg, N = 8) | Flatulance Gr1 (750 mg, N = 8) | Myalgia Gr1 (750 mg, N = 8)
5 (36) n(%): Vomiting Gr2 (500 mg, N = 14)
2 (13) n(%): Abdominal pain Gr1 (200 mg, N = 15) | Abdominal pain Gr2 (200 mg, N = 15) | Flatulance Gr1 (200 mg, N = 15) | Hot flush Gr1 (200 mg, N = 15) | Myalgia Gr1 (200 mg, N = 15) | Odynophagia Gr1 (200 mg, N = 15) | Oesophageal pain Gr2 (200 mg, N = 15) | Salivary hypersecretion Gr1 (200 mg, N = 15) | Sensation of a foreign body Gr1 (200 mg, N = 15) | Vomiting Gr1 (200 mg, N = 15)
1 (7) n(%): Abdominal distension Gr1 (200 mg, N = 15) | Abdominal distension Gr2 (200 mg, N = 15) | Dizziness Gr1 (200 mg, N = 15) | Hiccups Gr1 (200 mg, N = 15) | Myalgia Gr2 (200 mg, N = 15) | Headache Gr2 (500 mg, N = 14) | Myalgia Gr2 (500 mg, N = 14) | Odynophagia Gr2 (500 mg, N = 14) | Vomiting Gr3 (500 mg, N = 14)
2 (14) n(%): Dyspepsia Gr2 (500 mg, N = 14) | Dysphagia Gr2 (500 mg, N = 14) | Nausea Gr2 (500 mg, N = 14)
1 n(%): Abdominal distension Gr1 (500 mg, N = 14) | Dysphagia Gr1 (500 mg, N = 14) | Headache Gr1 (500 mg, N = 14) | Odynophagia Gr1 (500 mg, N = 14) | Oesophageal pain Gr1 (500 mg, N = 14) | Sensation of a foreign body Gr1 (500 mg, N = 14) | Vomiting Gr1 (500 mg, N = 14)
3 (20) n(%): Abdominal discomfort Gr1 (200 mg, N = 15) | Dyspepsia Gr1 (200 mg, N = 15) | Headache Gr1 (200 mg, N = 15)
3 (21) n(%): Oesophageal pain Gr2 (500 mg, N = 14)
2 n(%): Dizziness Gr1 (500 mg, N = 14) | Flatulance Gr1 (500 mg, N = 14) | Salivary hypersecretion Gr1 (500 mg, N = 14)
4 (50) n(%): Dyspepsia Gr1 (750 mg, N = 8)
3 n(%): Abdominal pain Gr1 (500 mg, N = 14) | Diarrhoea Gr1 (500 mg, N = 14) | Nausea Gr1 (500 mg, N = 14)
2 (25) n(%): Hiccups Gr1 (750 mg, N = 8) | Hot flush Gr1 (750 mg, N = 8) | Nausea Gr1 (750 mg, N = 8)
5 (33) n(%): Nausea Gr1 (200 mg, N = 15)
5 n(%): Dyspepsia Gr1 (500 mg, N = 14)
0 n(%): Abdominal discomfort Gr2 (200 mg, N = 15) | Abdominal discomfort Gr3 (200 mg, N = 15) | Abdominal distension Gr3 (200 mg, N = 15) | Abdominal pain Gr3 (200 mg, N = 15) | Diarrhoea Gr1 (200 mg, N = 15) | Diarrhoea Gr2 (200 mg, N = 15) | Diarrhoea Gr3 (200 mg, N = 15) | Dizziness Gr2 (200 mg, N = 15) | Dizziness Gr3 (200 mg, N = 15) | Dyspepsia Gr2 (200 mg, N = 15) | Dyspepsia Gr3 (200 mg, N = 15) | Dysphagia Gr1 (200 mg, N = 15) | Dysphagia Gr2 (200 mg, N = 15) | Dysphagia Gr3 (200 mg, N = 15) | Flatulance Gr2 (200 mg, N = 15) | Flatulance Gr3 (200 mg, N = 15) | Headache Gr2 (200 mg, N = 15) | Headache Gr3 (200 mg, N = 15) | Hiccups Gr2 (200 mg, N = 15) | Hiccups Gr3 (200 mg, N = 15) | Hot flush Gr2 (200 mg, N = 15) | Hot flush Gr3 (200 mg, N = 15) | Myalgia Gr3 (200 mg, N = 15) | Nausea Gr2 (200 mg, N = 15) | Nausea Gr3 (200 mg, N = 15) | Odynophagia Gr2 (200 mg, N = 15) | Odynophagia Gr3 (200 mg, N = 15) | Oesophageal pain Gr1 (200 mg, N = 15) | Oesophageal pain Gr3 (200 mg, N = 15) | Salivary hypersecretion Gr2 (200 mg, N = 15) | Salivary hypersecretion Gr3 (200 mg, N = 15) | Sensation of a foreign body Gr2 (200 mg, N = 15) | Sensation of a foreign body Gr3 (200 mg, N = 15) | Vomiting Gr2 (200 mg, N = 15) | Vomiting Gr3 (200 mg, N = 15) | Abdominal discomfort Gr1 (500 mg, N = 14) | Abdominal discomfort Gr2 (500 mg, N = 14) | Abdominal discomfort Gr3 (500 mg, N = 14) | Abdominal distension Gr2 (500 mg, N = 14) | Abdominal distension Gr3 (500 mg, N = 14) | Abdominal pain Gr2 (500 mg, N = 14) | Abdominal pain Gr3 (500 mg, N = 14) | Diarrhoea Gr2 (500 mg, N = 14) | Diarrhoea Gr3 (500 mg, N = 14) | Dizziness Gr2 (500 mg, N = 14) | Dizziness Gr3 (500 mg, N = 14) | Dyspepsia Gr3 (500 mg, N = 14) | Dysphagia Gr3 (500 mg, N = 14) | Flatulance Gr2 (500 mg, N = 14) | Flatulance Gr3 (500 mg, N = 14) | Headache Gr3 (500 mg, N = 14) | Hiccups Gr2 (500 mg, N = 14) | Hiccups Gr3 (500 mg, N = 14) | Hot flush Gr2 (500 mg, N = 14) | Hot flush Gr3 (500 mg, N = 14) | Myalgia Gr1 (500 mg, N = 14) | Myalgia Gr3 (500 mg, N = 14) | Nausea Gr3 (500 mg, N = 14) | Odynophagia Gr3 (500 mg, N = 14) | Oesophageal pain Gr3 (500 mg, N = 14) | Salivary hypersecretion Gr2 (500 mg, N = 14) | Salivary hypersecretion Gr3 (500 mg, N = 14) | Sensation of a foreign body Gr2 (500 mg, N = 14) | Sensation of a foreign body Gr3 (500 mg, N = 14) | Abdominal discomfort Gr3 (750 mg, N = 8) | Abdominal distension Gr2 (750 mg, N = 8) | Abdominal distension Gr3 (750 mg, N = 8) | Abdominal pain Gr2 (750 mg, N = 8) | Abdominal pain Gr3 (750 mg, N = 8) | Diarrhoea Gr1 (750 mg, N = 8) | Diarrhoea Gr2 (750 mg, N = 8) | Diarrhoea Gr3 (750 mg, N = 8) | Dizziness Gr2 (750 mg, N = 8) | Dizziness Gr3 (750 mg, N = 8) | Dyspepsia Gr2 (750 mg, N = 8) | Dyspepsia Gr3 (750 mg, N = 8) | Dysphagia Gr3 (750 mg, N = 8) | Flatulance Gr2 (750 mg, N = 8) | Flatulance Gr3 (750 mg, N = 8) | Headache Gr2 (750 mg, N = 8) | Headache Gr3 (750 mg, N = 8) | Hiccups Gr2 (750 mg, N = 8) | Hiccups Gr3 (750 mg, N = 8) | Hot flush Gr2 (750 mg, N = 8) | Hot flush Gr3 (750 mg, N = 8) | Myalgia Gr2 (750 mg, N = 8) | Myalgia Gr3 (750 mg, N = 8)
